Laboratory results taken from patent US20240268372A1, “Methods and Compositions for Extending Organ and Tissue Preservation” (The General Hospital Corporation, priority 2021, published 2024).

System: whole rat livers
Assay: Optimized partial freezing of whole rat livers: ex vivo simulated transplantation (normothermic reperfusion with whole blood)
Settings: −10° C., 1 day
Procedure: Within this standardized protocol, we first compared GLY, EG, and PG as main permeating CPA using a freezing temperature of −10° C. and storage duration of 1 day (FIG. 37). Using PG as the CPA, we subsequently tested the effect of freezing temperature (−10° C. vs −15° C.) and storage duration (1 day vs 5 days) on liver viability after partial freezing using the same protocol (FIG. 38).
The Affinity Pixie Oxygenator is a clinical grade oxygenator that has graduated fiber bundle density technology and radial flow path that is designed to create a more uniform blood flow, enhance gas transfer, reduce pressure drops, and decrease prime volume. Moreover, it also contains a Balance® Biosurface that contains a hydrophilic polymer coating to reduce platelet adhesion and activation. This adaptation to the oxygenator is essential since recirculating whole blood during simulated transplantation may trigger coagulation and inflammatory events that are not representative of in vivo events and could skew observed outcomes.
Machine perfusion system: The perfusion system provides a continuous perfusion through the portal vein that is pressure, flow, and temperature controlled. The perfusates can be either recirculated or flushed with a single pass though the liver and perfusates can be changed without interrupting perfusion. The setup and operation of the perfusion system is described in detail elsewhere (see, e.g., ref. 15). There were two oxygenators used in this study, including the Radnoti (Cat #130144) and Affinity Pixie Oxygenator (Cat #BBP241). Due to the flexibility and low cost of the Radnoti oxygenator, it was first used for initial optimization and characterization studies, including determining the effect of permeating CPAs (GLY vs EG vs PG; FIG. 37), temperature (−10 vs −15° C., FIG. 38) storage duration (1 vs 5 days, FIG. 38), and warm ischemic injury.
Preconditioning during SNMP: Directly after procurement the livers were perfused with 250 ml of SNMP preloading solution (see Table 7 for composition of all solutions). The perfusion temperature was set at 21° C. and perfusion was initiated at 5 ml/min. […] Next, the livers were perfused for 30 additional minutes to allow for cellular uptake of 3-O-methyl-D-glucose (3-OMG).
Preloading of CPAs during HMP: The SNMP preloading solution was gradually switched to HMP preloading solution in […] increments, each with 10% decreasing and 10% increasing volumetric fractions of SNMP and HMP preloading solution, respectively. During this switch, the perfusion temperature was lowered to 4° C., and flows were adjusted to a maximum perfusion pressure of 3 mmHg. Dependent on the flowrate, the solution switch took 10-15 minutes. The HMP preloading was continued for 30 additional minutes to ensure complete equilibration of the solution throughout the peripheral liver tissue.
This was done in 10 fractions of 10 ml, each with 10% decreasing and 10% increasing volumetric fractions of HMP preloading solution and storage solution, respectively. During this switch, the perfusion temperature was maintained at 4° C., and the flowrates were lowered to ensure a maximum perfusion pressure of 3 mmHg. The final 15 ml fraction of 100% storage solution was loaded at a fixed flowrate of 0.5 ml/min.
Partial freezing: After loading of the storage solution, the liver was placed in a bag with 50 ml fresh storage solution and suspended in a pre-cooled chiller (Engel, Schwertberg, Austria). Depending on the experimental condition the chiller temperature was pre-cooled to −10° C. or −15° C. and the liver stored for […] 5 days.

OCC(O)CO [GLY, glycerol]
bile production during simulated transplantation: did not produce bile
lactate clearance after first hour of simulated transplantation: not observed
microscopic tissue structure (H&E, blinded pathologist): most unfavorable results
oxygen uptake during simulated transplantation (at 2 h): 17.9 ± 5.86 µL O2/min/g
tissue adenylate energy charge (at 2 h): 0.064±0.039
weight gain during simulated transplantation (at 2 h): 19.00±16.63%
AST levels (at 2 h of simulated transplantation): 1528±388 U/L
